Where only a bound is given, the exact number is not on record here.

Data set [1] concerns Caco-2 colon adenocarcinoma cells. In words: MTT cell viability assay, Caco-2. Format: cell-based. Particulars: Homo sapiens, Caco-2 (not expressing Tau), 72 h, mean ± SEM, read-out: IC50 (metabolic activity). A digest of the protocol:
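Cells seeded at 15,000/mL, cultured 24 h, then exposed to compounds at various concentrations for 72 h. Viability by MTT (3 h, 37 °C, DMSO-solubilized, 600 nm) as percent of untreated cells; three independent experiments, IC50 by Chou–Talalay method.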

The subject of data set [2] is U87 shCTRL cells. In words: Cell cycle by flow cytometry (propidium iodide), U87 shCTRL. Format: cell-based, human. Particulars: 48 h. Here is the method: Measurements of cell cycle from DNA content were performed by flow cytometry as described before. Briefly, 4.10^5 cells in exponential growth were seeded in 6-well plates. After 24 h, they were treated with 10 µM of compounds for 48 h. Nocodazole was used as a positive control with a concentration of 1 µM. The trypsinized cells were harvested and then centrifuged (1200 rpm, 5 min, at room temperature). The cell pellet was resuspended in 1 mL of PBS 1× at 4 °C, and then an extra 4 mL of cold PBS was added to wash the pellet. Cells were then centrifuged again (1200 rpm, 5 min, at 4 °C). To fixate the cells, the pellet was resuspended in 100 µL of cold 70% ethanol, then an additional 900 µL was added and cells were incubated for 30 min at −20 °C. After that, 9 mL of cold PBS was added, and cells were centrifuged (2000 rpm, 5 min, at 4 °C) to remove ethanol. The cell pellet was then resuspended in the staining mix containing 50 µg.mL^−1 of propidium iodide (Molecular Probes, Paris, France) and 100 µg.mL^−1 of RNAse A (Sigma-Aldrich, Saint-Quentin-Fallavier, France) in PBS for 20 min at room temperature in darkness. Samples were analyzed on a Beckman–Coulter–Gallios flow cytometer using the Kaluza for Gallios Acquisition v1.0 software. Propidium iodide was excited at 488 nm, and fluorescence was analyzed at 620 nm on channel FL-3. For the analysis, there is considerable overlap between early S phase and G1 and between late S phase and G2/M due to broadening of the distribution caused by variability in the staining of the cells and instrumental variability. Therefore, the percentages of cells in the sub-G1, G1, S, and G2/M phases of the cell cycle were calculated using the Watson et al. algorithm for cell cycle analysis in Kaluza for Gallios Analysis v2.1 software. The software automatically adjusted gates based on PI median fluorescence intensity of the cells and their frequency among total cells. The number of cells in each phase was divided by the total number of analyzed cells, and the values were reported as percentage of the total cells for each cell cycle phase.

In data set [3] the test system is lactate-dehydrogenase (LDH) of U87 shCTRL and U87 shTau cells. In words: LDH activity in the medium (necrosis). Format: cell-based. The note with it: both cell types, 24 h treatment. The procedure:
death. (A) The apoptotic protein casp ase 3 (Casp 3) was analy zed by western blot of U87 shCTRL and U87 shTau cells: for each s ample t he ratio between the amount of Casp3 and GAPDH was calculated as relative fold of the reference value (with or without the compound); n = 3 lysates, ns: non-si gnificant. […]
blot used for quantification. (B) The activity of necrotic LDH protein was analy zed by fluorescence emission in U87 shCTRL (upper panel) and U87 shTau (lower panel) cells. For each s ample, the ratio between LDH florescence was calculated as the percentage of activity against reference value (0,1% Triton); n = 3 lysates; Significant statistical differences were calculated using a non-parametric Mann-Whitney test with **P < 0.01; n.s: non-significant.
(1 picture or pasted object on this page, not shown here)

The test system of data set [4] is U87 shCTRL cells. In words: Microtubule network analysis (alpha-tubulin immunofluorescence), U87 shCTRL. In kind it is cell-based, human. Here is the method: Cells were then fixed in 4% formaldehyde (in PBS pH 7.4) for 20 min at RT, permeabilized with PBS-Triton X-100 0.5% for 10 min at RT. Immunostaining was carried out overnight at 4 °C with a primary anti-citrate synthase antibody (dilution 1:400 in PBS-BSA 3%; SC390693; SantaCruz Biotechnologies, Heidelberg, Germany). The following day, the cells were washed then incubated with anti-mouse secondary antibody (dilution 1:800 in PBS-BSA 3%; A-11029; Invitrogen) and TRITC-phalloidin (dilution 1:2500 in PBS-BSA 3%; P1951; Sigma-Aldrich, Saint-Quentin-Fallavier, France) for 1 h at RT in the dark. For the microtubule network, the same protocol for mitochondria labeling was carried out by replacing with primary anti-α-tubulin antibody (dilution 1:400 in PBS-BSA 1% from a 1 mg/mL solution; monoclonal antibody, clone DM1A, Sigma-Aldrich, Saint-Quentin-Fallavier, France). Next, cells were washed in PBS and cover glasses were mounted with a drop of ProLong® anti-fade solution (Invitrogen). Mitochondria and cytoskeletons were imaged using a confocal laser scanning microscope (CLSM) Leica SP5 with a Leica inverted microscope, equipped with a Plan-Apochromat 63×oil immersion objective (NA = 1.4). Each image was recorded with the CLSM’s spectral mode selecting specific domains of the emission spectrum. The Alexafluor488 and FITC fluorophores were excited at 488 nm with an argon laser, and fluorescence emission was collected between 496 nm and 535 nm. The TRITC fluorophore was excited at 543 nm with a helium–neon laser, and fluorescence was collected between 560 and 620 nm. The public-domain Fiji v1.54f software was used for image analysis.
The analyses of mitochondria and microtubule networks were performed using, respectively, the ‘Mitochondria analyzer’ plugin for Fiji v1.54f software and the method described in our earlier work. Briefly, a series of images were transferred to the software and corrected for background fluorescence intensity contribution. Next, the surface of 50 single cells was measured by considering the cell shape as the boundary of labelling of actin or α-tubulin cytoskeletons (respectively for measurement on mitochondria or microtubules). Then, the mitochondria elongation and mean branch junction per mitochondria parameters, and the surface of the microtubule network, were measured by performing systematically the Otsu method to reduce all gray-level images to binary images. Note that the Otsu plugin in ImageJ is an algorithm which searches for the threshold minimizing the intra-class variance of pixel intensities, defined as a weighted sum of variances of the two classes; the local set is a circular region of interest, and the central pixel is tested against the Otsu threshold found for that region. Moreover, the ratios of microtubules on cell surfaces were calculated as percentages.

The mark [5] stands for this setting: 1.25 µM, 24 h, untreated 39 ± 5%.

Usually IC50 stands for the midpoint of a concentration-inhibition curve. Turning to `Nc1nc2ccc3oc(-c4cccc(Oc5ccccc5)c4)cc(=O)c3c2s1` [Compound 2, 2-amino-7-(3-phenoxyphenyl)-9H-chromeno [6,5-d]thiazol-9-one], the IC50 in data set [1] is more than 100 µM. Besides, the “effect on cell cycle progression” value in the data set with U87 shCTRL cells [2] (10 µM) is “no significant effect on cell cycle progression”. Moreover, the LDH activity entry in data set [3] was “remained similar to untreated cells”. For the same compound, the “ratio of microtubule network surface to total cell surface” value with U87 shCTRL cells [4] (setting [5]) was found to be 42.2 ± 6.7%; in the data set with U87 shCTRL cells [4] (5 µM, 8 h (maximal)) it was 44.1 ± 3.8%; with U87 shCTRL cells [4] (20 µM, 24 h, untreated 39 ± 5%), 43.2 ± 9.3%.

As to `Nc1nc2ccc3oc(C(=O)O)cc(=O)c3c2s1` [Compound 5], the IC50 in data set [1] is more than 100 µM. In addition, in the data set with U87 shCTRL cells [2] (compounds 10 µM, NOC 1 µM), the “%G1 (cells in G1 phase)” value is 53 ± 4%. The “%G2/M (cells in G2/M phase)” value with U87 shCTRL cells [2] (compounds 10 µM, NOC 1 µM) amounted to 34 ± 5%. Moreover, the LDH activity entry in data set [3] is recorded as “remained similar to untreated cells”. For the same compound, the “ratio of microtubule network surface to total cell surface” value was “no effect” in the data set on U87 shCTRL cells [4] (setting [5]); “no effect on microtubule networks” with U87 shCTRL cells [4] (5 µM, 8 h (maximal)); “no effect” in the data set with U87 shCTRL cells [4] (20 µM, 24 h, untreated 39 ± 5%).

(Values after article PMC10606064, “2-Aminothiazole-Flavonoid Hybrid Derivatives Binding to Tau Protein and Responsible for Antitumor Activity in Glioblastoma” (International Journal of Molecular Sciences, 2023).)
